From patent US11214803B2, “Modulators of YAP1 expression” (Ionis Pharmaceuticals, Inc., priority 2019, dated 2022)
Strand notation (5' to 3'): a small letter for the sugar, then the base; units joined by * are phosphorothioate-linked, units joined directly phosphodiester-linked; [ ] holds rarer units or linkages, { } end groups; capitals alone tell only the bases. e = 2'-O-(2-methoxyethyl) (MOE); k = constrained ethyl (cEt); [5mC] = 5-methylcytosine; d = 2'-deoxy (DNA); m = 2'-O-methyl

These substances were tested on Yap1 mRNA (assay: Antisense inhibition of human Yap1 in SNU-449 cells by modified oligonucleotides, single dose (Example 5, RTS36584)). Details: Table 39; SNU-449 cells, 10,000 cells per well, free uptake, 2,000 nM oligonucleotide, approx. 48 hours; RTS36584; normalized to RIBOGREEN; Yap1 mRNA relative to untreated control.
Format: cell-based
Summary of the method: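 SNU-449 cells (10,000/well) took up 2,000 nM oligonucleotide by free uptake for about 48 h. Yap1 mRNA was measured by qRT-PCR with primer probe set RTS36584 and normalised to RIBOGREEN total RNA. Values are % of untreated control; asterisked oligos target the amplicon region.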
“1198419 (kA*dT*dT*d[5mC]*dA*dG*dA*dT*dT*dT*dA*kG*eG*kA*eT*kG; antisense) [Compound 1198419]” was tested, and the “YAP1 (% UTC)” value was 78 % UTC. With “1198429 (kA*dT*dT*dG*d[5mC]*dA*dA*dT*d[5mC]*dT*dG*kT*e[5mC]*kT*eG*kA; antisense) [Compound 1198429]” the “YAP1 (% UTC)” value was 48 % UTC.

Same assay, conditions: Table 40 (separate experiment); SNU-449 cells, 10,000 cells per well, free uptake, 2,000 nM oligonucleotide, approx. 48 hours; RTS36584; normalized to RIBOGREEN; Yap1 mRNA relative to untreated control
With “1198727 (kA*eT*kT*dA*dG*dA*dG*dT*dA*dT*dG*dT*eG*eG*k[5mC]*kA; antisense) [Compound 1198727]” the “YAP1 (% UTC)” value was 19 % UTC. With “1198761 (kT*eT*kT*dA*dG*dG*dA*dT*dG*d[5mC]*dA*dT*eG*eG*kT*kT; antisense) [Compound 1198761]” the “YAP1 (% UTC)” value was 42 % UTC. “1198780 (antisense kT*eA*kA*dT*dA*dT*dT*dG*d[5mC]*dA*dA*dT*e[5mC]*eT*kG*kT) [Compound 1198780]” was tested, and the “YAP1 (% UTC)” value was 80 % UTC.

Same assay, conditions: Table 41; SNU-449 cells, 10,000 cells per well, free uptake, 2,000 nM modified oligonucleotide, approximately 48 hours; RTS36584; normalized to RIBOGREEN; Yap1 mRNA relative to untreated control cells
“1198776 (kG*eA*k[5mC]*dA*dA*d[5mC]*dT*d[5mC]*dT*dT*dA*dT*eA*eT*kG*kG) [Compound 1198776]” was tested, and the “YAP1 (% UTC)” value was 57 % UTC. For “1198671 (antisense kT*kT*dT*dA*dG*dG*dA*dT*dG*d[5mC]*dA*dT*kG*eG*kT*eT) [Compound 1198671]”, the “YAP1 (% UTC)” value was 26 % UTC. “1198793 (antisense k[5mC]*eT*kT*dT*dA*dA*dA*dG*dT*dG*dT*dA*eT*eG*kT*k[5mC]) [Compound 1198793]” was tested, and the “YAP1 (% UTC)” value was 34 % UTC. In the case of “1198770 (k[5mC]*eT*kT*dA*dT*dA*dT*dG*dG*dT*dT*dT*eT*eG*kT*kG; antisense) [Compound 1198770]”, the “YAP1 (% UTC)” value is reported as 40 % UTC. With “1198689 (antisense kA*kA*dT*dA*dT*dT*dG*d[5mC]*dA*dA*dT*d[5mC]*kT*eG*kT*e[5mC]) [Compound 1198689]” the “YAP1 (% UTC)” value was 91 % UTC. In the case of “1198669 (antisense kA*kG*dG*dA*dT*dG*d[5mC]*dA*dT*dG*dG*dT*kT*eT*kT*eT) [Compound 1198669]”, the “YAP1 (% UTC)” value is reported as 61 % UTC. For “1198737 (k[5mC]*eT*kG*dA*dG*dG*dT*dA*dT*dA*dA*d[5mC]*eT*eG*kG*kG; antisense) [Compound 1198737]”, the “YAP1 (% UTC)” value was 24 % UTC.

Same assay, conditions: Table 42 (separate experiment); SNU-449 cells, 10,000 cells per well, free uptake, 2,000 nM modified oligonucleotide, approximately 48 hours; RTS36584; normalized to RIBOGREEN; Yap1 mRNA relative to untreated control cells
In the case of “1198226 (kG*k[5mC]*dA*d[5mC]*dT*dT*dT*dT*dA*d[5mC]*dA*eT*eT*eA*kG*kG) [Compound 1198226]”, the “YAP1 (% UTC)” value is reported as 23 % UTC. For “1198213 (kA*kT*dA*dT*dT*dA*dG*dA*dG*dT*dA*eT*eG*eT*kG*kG; antisense) [Compound 1198213]”, the “YAP1 (% UTC)” value was 16 % UTC.

Same assay, conditions: Table 43 experiment; SNU-449 cells, 10,000 cells per well, free uptake, 2,000 nM, approximately 48 hours; RTS36584; Yap1 mRNA normalized to RIBOGREEN, relative to untreated control cells
For “1198248 (kA*kT*dA*dT*dG*dG*dT*dT*dT*dT*dG*eT*eG*eT*kG*kT; antisense) [Compound 1198248]”, the “YAP1 (% UTC)” value was 64 % UTC. In the case of “1198218 (kA*kG*dG*dT*dA*dT*dA*dA*d[5mC]*dT*dG*eG*eG*e[5mC]*kA*kA; antisense) [Compound 1198218]”, the “YAP1 (% UTC)” value is reported as 40 % UTC. In the case of “1198246 (kT*k[5mC]*dA*dG*dA*dT*dT*dT*dA*dG*dG*eA*eT*eG*k[5mC]*kA; antisense) [Compound 1198246]”, the “YAP1 (% UTC)” value is reported as 30 % UTC. “1198245 (k[5mC]*kA*dG*dA*dT*dT*dT*dA*dG*dG*dA*eT*eG*e[5mC]*kA*kT; antisense) [Compound 1198245]” was tested, and the “YAP1 (% UTC)” value was 46 % UTC. “1198457 (kA*kT*dT*dG*dT*d[5mC]*dT*d[5mC]*dA*dT*dG*e[5mC]*k[5mC]*eT*kT*eA) [Compound 1198457]” was tested, and the “YAP1 (% UTC)” value was 18 % UTC.

Same assay, conditions: Table 44 experiment; SNU-449 cells, 10,000 cells per well, free uptake, 2,000 nM, approximately 48 hours; RTS36584; Yap1 mRNA normalized to RIBOGREEN, relative to untreated control cells
With “1198512 (kA*kA*d[5mC]*dT*d[5mC]*dT*dT*dA*dT*dA*dT*eG*kG*eT*kT*eT; antisense) [Compound 1198512]” the “YAP1 (% UTC)” value was 62 % UTC. “1198511 (kA*k[5mC]*dT*d[5mC]*dT*dT*dA*dT*dA*dT*dG*eG*kT*eT*kT*eT; antisense) [Compound 1198511]” was tested, and the “YAP1 (% UTC)” value was 53 % UTC.

Same assay, conditions: Table 45; Yap1 mRNA as percent of untreated control, SNU-449 cells, single dose
“1198895 (kG*kG*dA*dA*dA*dT*dT*dG*dT*d[5mC]*dT*k[5mC]*dA*kT*dG*k[5mC]; antisense) [Compound 1198895]” was tested, and the “YAP1 (% UTC)” value was 22 % UTC. For “1198936 (kA*kG*dA*dT*dT*dT*dA*dG*dG*dA*dT*kG*d[5mC]*kA*dT*kG; antisense) [Compound 1198936]”, the “YAP1 (% UTC)” value was 38 % UTC. In the case of “1198924 (kT*kT*dT*dG*dG*dA*dA*dG*dA*dT*d[5mC]*kT*dG*kA*dA*kA; antisense) [Compound 1198924]”, the “YAP1 (% UTC)” value is reported as 75 % UTC. With “1198951 (kA*kA*dT*dA*dT*dT*dG*d[5mC]*dA*dA*dT*k[5mC]*dT*kG*dT*k[5mC]; antisense) [Compound 1198951]” the “YAP1 (% UTC)” value was 81 % UTC.

Same assay, conditions: Table 46; Yap1 mRNA as percent of untreated control, SNU-449 cells, single dose
For “1198805 (antisense kA*kT*dT*dG*dT*d[5mC]*dT*d[5mC]*dA*dT*dG*k[5mC]*e[5mC]*kT*eT*kA) [Compound 1198805]”, the “YAP1 (% UT)” value was 23 % UT. With “1198829 (k[5mC]*kT*dT*dT*dT*dA*d[5mC]*dA*dT*dT*dA*kG*eG*kA*eA*k[5mC]; antisense) [Compound 1198829]” the “YAP1 (% UT)” value was 36 % UT. “1198854 (kA*kT*dA*dT*dG*dG*dT*dT*dT*dT*dG*kT*eG*kT*eG*kT; antisense) [Compound 1198854]” was tested, and the “YAP1 (% UT)” value was 56 % UT. With “1198863 (kA*kT*dT*dG*d[5mC]*dA*dA*dT*d[5mC]*dT*dG*kT*e[5mC]*kT*eG*kA; antisense) [Compound 1198863]” the “YAP1 (% UT)” value was 65 % UT.

Same assay, conditions: Table 48; Yap1 mRNA level relative to untreated control; modified oligonucleotides targeting SEQ ID NO.: 1 and 2
With “1198288 (kG*kA*kA*dA*dT*dT*dG*dT*d[5mC]*dT*d[5mC]*dA*kT*eG*k[5mC]*e[5mC]; antisense) [Compound 1198288]” the “YAP1 (% UT)” value was 10 % UT. For “1198315 (kT*kT*kA*dA*dG*d[5mC]*dA*d[5mC]*dT*dT*dT*dT*kA*e[5mC]*kA*eT; antisense) [Compound 1198315]”, the “YAP1 (% UT)” value was 85 % UT. In the case of “1198328 (kA*kT*kT*dT*dA*dG*dG*dA*dT*dG*d[5mC]*dA*kT*eG*kG*eT; antisense) [Compound 1198328]”, the “YAP1 (% UT)” value is reported as 42 % UT. In the case of “1198285 (kA*kT*kT*dG*dT*d[5mC]*dT*d[5mC]*dA*dT*dG*d[5mC]*k[5mC]*eT*kT*eA; antisense) [Compound 1198285]”, the “YAP1 (% UT)” value is reported as 13 % UT. With “1198329 (kG*kA*kT*dT*dT*dA*dG*dG*dA*dT*dG*d[5mC]*kA*eT*kG*eG; antisense) [Compound 1198329]” the “YAP1 (% UT)” value was 36 % UT.

Same assay, conditions: Table 49; Yap1 mRNA level relative to untreated control; modified oligonucleotides targeting SEQ ID NO.: 1 and 2
With “1198355 (kA*kA*kA*dG*dT*dG*dT*dA*dT*dG*dT*d[5mC]*kA*eG*kA*eA; antisense) [Compound 1198355]” the “YAP1 (% UT)” value was 6 % UT.

Same assay, conditions: Table 50; Yap1 mRNA remaining as percent of untreated control (UT), SNU-449 cells, single dose
In the case of “1198593 (antisense kT*kT*kA*dT*dA*dT*dG*dG*dT*dT*dT*dT*kG*kT*kG*eT) [Compound 1198593]”, the “YAP1 (% UT)” value is reported as 45 % UT. “1198615 (antisense kT*kT*kA*dA*dA*dG*dT*dG*dT*dA*dT*dG*kT*k[5mC]*kA*eG) [Compound 1198615]” was tested, and the “YAP1 (% UT)” value was 10 % UT. “1198622 (kT*kA*kA*dG*dT*dA*dA*dG*dG*dT*dT*dT*k[5mC]*k[5mC]*k[5mC]*eA; antisense) [Compound 1198622]” was tested, and the “YAP1 (% UT)” value was 26 % UT.

Same assay, conditions: Table 51; Yap1 mRNA remaining as percent of untreated control (UT), SNU-449 cells, single dose
“1197242 (antisense k[5mC]*kA*k[5mC]*dT*mG*dA*dG*dG*dT*dA*dT*dA*dA*k[5mC]*kT*kG) [Compound 1197242]” was tested, and the “YAP1 (% UT)” value was 46 % UT. “1200798 (kT*kA*kT*dT*dA*mG*dA*dG*dT*dA*dT*dG*dT*kG*kG*k[5mC]; antisense) [Compound 1200798]” was tested, and the “YAP1 (% UT)” value was 7 % UT.

Same assay, conditions: Table 52; Yap1 mRNA, modified oligonucleotides targeting SEQ ID NO: 1 and 2
With “1200815 (k[5mC]*kA*k[5mC]*dT*dT*mU*dT*dA*d[5mC]*dA*dT*dT*dA*kG*kG*kA; antisense) [Compound 1200815]” the “YAP1 (% UT)” value was 55 % UT. With “1200828 (kA*kT*kA*dG*dT*mG*d[5mC]*dT*dT*dT*dG*dG*dA*kA*kG*kA; antisense) [Compound 1200828]” the “YAP1 (% UT)” value was 54 % UT. For “1200811 (kT*kT*kA*d[5mC]*dA*mU*dT*dA*dG*dG*dA*dA*d[5mC]*kA*kA*kG; antisense) [Compound 1200811]”, the “YAP1 (% UT)” value was 62 % UT.

Same assay, conditions: Yap1 mRNA, percent of untreated control; modified oligonucleotides targeting SEQ ID NO: 1 and 2; Table 47
“1198874 (kA*kA*dG*dT*dG*dT*dA*dT*dG*dT*d[5mC]*kA*eG*kA*eA*kG) [Compound 1198874]” was tested, and the “YAP1 (% UT)” value was 2 % UT. With “1197210 (antisense kA*kT*kG*dT*dA*dA*dT*dA*dT*dT*dG*d[5mC]*dA*kA*kT*k[5mC]) [Compound 1197210]” the “YAP1 (% UT)” value was 105 % UT. With “1197211 (antisense kT*kA*kT*dG*dT*dA*dA*dT*dA*dT*dT*dG*d[5mC]*kA*kA*kT) [Compound 1197211]” the “YAP1 (% UT)” value was 80 % UT. In the case of “1198876 (kT*kA*dA*dA*dG*dT*dG*dT*dA*dT*dG*kT*e[5mC]*kA*eG*kA; antisense) [Compound 1198876]”, the “YAP1 (% UT)” value is reported as 31 % UT. In the case of “1197178 (antisense kA*kA*kT*dT*dG*dT*d[5mC]*dT*d[5mC]*dA*dT*dG*d[5mC]*k[5mC]*kT*kT) [Compound 1197178]”, the “YAP1 (% UT)” value is reported as 12 % UT. With “1197208 (antisense kT*kA*kA*dT*dA*dT*dT*dG*d[5mC]*dA*dA*dT*d[5mC]*kT*kG*kT) [Compound 1197208]” the “YAP1 (% UT)” value was 66 % UT.
